Results on 15 compounds are retold here after ChEMBL document CHEMBL3046651, “Cytotoxicity and QSAR study of (thio)ureas derived from phenylalkylamines and pyridylalkylamines” (Med Chem Res, 2013).

Common to all, as to format: functional, cell-based
One test relates to MOLT-3. Briefly: Cytotoxicity against Homo sapiens (human) MOLT3 cells assessed as inhibition of cell growth after 3 days by crystal violet staining. As to conditions: MOLT-3, 72 h.
A further test deals with HepG2. Briefly: Cytotoxicity against Homo sapiens (human) HepG2 cells assessed as inhibition of cell growth after 3 days by MTT assay. The following applies: HepG2, 72 h.
Another test has as its system A549. Briefly: Cytotoxicity against Homo sapiens (human) A549 cells assessed as inhibition of cell growth after 3 days by MTT assay. As to conditions: A549, 72 h.
Test [1] is described as follows: Cytotoxicity against Homo sapiens (human) HuCCa1 cells assessed as inhibition of cell growth after 3 days by crystal violet staining. The following applies: HuCC-A1, 72 h.

Take `S=C(NCCc1ccccn1)Nc1ccc(Cl)cc1`: the IC50 is 120 µM in the test on MOLT-3, over 171 µM in the test on HepG2, over 171 µM in the test on A549 and over 171 µM in test [1].
`O=[N+]([O-])c1ccc(NC(=S)NCc2cccc(CNC(=S)Nc3ccc([N+](=O)[O-])cc3)c2)cc1`: the IC50 is 3.36 µM in the test on MOLT-3, 7.51 µM with HepG2, 88.6 µM in the test with A549 and 34.2 µM in test [1].
For the compound `O=C(NCCc1ccccc1)Nc1ccc(Cl)cc1`, the IC50 is over 182 µM in the test with MOLT-3, 37.6 µM in the test on HepG2, over 182 µM in the test on A549 and over 182 µM in test [1].
As for `O=[N+]([O-])c1ccc(NC(=S)NCCc2ccccn2)cc1`, the IC50 is 78.7 µM in the test on MOLT-3, 152 µM with HepG2, over 165 µM in the test with A549 and over 165 µM in test [1].
Turning to `S=C(NCc1cccc(CNC(=S)Nc2ccc(Cl)cc2)c1)Nc1ccc(Cl)cc1`, the IC50 in the test on MOLT-3 was 1.62 µM; in the test with HepG2, 7.63 µM; with A549 it was over 105 µM; in test [1], 52.6 µM.
Consider `O=[N+]([O-])c1ccc(NC(=S)NCc2ccccn2)cc1`, for which the IC50 in the test with MOLT-3 is 54.1 µM; with HepG2, 34.7 µM; in the test with A549, over 173 µM; in test [1], over 173 µM.
Turning to `COc1ccc(CCNC(=S)Nc2ccc(Cl)cc2)cc1OC`, the half-maximal inhibitory concentration (IC50) in the test with MOLT-3 was determined as 38.9 µM; with HepG2 it was 60.8 µM; in the test with A549 it was 129 µM; in test [1], 139 µM.
Consider `O=C(NCCc1ccccn1)Nc1ccc(Cl)cc1`, for which the IC50 with MOLT-3 was 66.9 µM; with HepG2, 22.7 µM; in the test on A549, over 181 µM; in test [1], over 181 µM.
`S=C(NCc1ccccn1)Nc1ccc(Cl)cc1`: the IC50 was 119 µM with MOLT-3, over 180 µM in the test on HepG2, over 180 µM in the test on A549 and over 180 µM in test [1].
Turning to `COc1ccc(CCNC(=S)Nc2ccc([N+](=O)[O-])cc2)cc1OC`, the IC50 in the test on MOLT-3 is 21.7 µM; with HepG2 it was 42.4 µM; with A549 it was 65 µM; in test [1], over 138 µM.
For the compound `O=C(NCc1ccccn1)Nc1ccc(Cl)cc1`, the half-inhibitory concentration (IC50) with MOLT-3 is 186 µM; in the test with HepG2, over 191 µM; in the test with A549, over 191 µM; in test [1], over 191 µM.
On to `S=C(NCCc1ccccc1)Nc1ccc(Cl)cc1`, for which the IC50 with MOLT-3 stood at 25.1 µM; with HepG2, 44.7 µM; in the test on A549 it was 75.7 µM; in test [1] it was 84.2 µM.
`COc1ccc(CCNC(=O)Nc2ccc(Cl)cc2)cc1OC`: the IC50 in the test with MOLT-3 is 50.7 µM; in the test with HepG2, 52.8 µM; in the test on A549, over 149 µM; in test [1], over 149 µM.
Take `O=[N+]([O-])c1ccc(NC(S)=NCCc2ccccc2)cc1`: the IC50 in the test on MOLT-3 is 12.5 µM; in the test on HepG2, 25.4 µM; in the test with A549, 80.3 µM; in test [1], 19.1 µM.
Consider `COc1cccc2c1C(=O)c1c(O)c3c(c(O)c1C2=O)C[C@@](O)(C(=O)CO)C[C@@H]3O[C@H]1C[C@H](N)[C@H](O)[C@H](C)O1` [DOXORUBICIN], for which the IC50 came out at 0.42 µM in the test with HepG2, 0.7 µM in the test on A549 and 0.64 µM in test [1].
